{
  "source": "patent US9751862B2",
  "about": "“Pesticidally active substituted pyridyl carboxamides” (Syngenta Participations AG, priority 2014, dated 2017)",
  "type_in_all_cases": "in vivo",
  "key": {"[1]": {"system": "Myzus persicae (Green Peach Aphid)", "assay": "Activity against Myzus persicae (mixed population, feeding/residual contact activity, preventive), sunflower leaf discs", "details": "foliar, 144 h, read-out: activity (mortality)", "experimental": "Sunflower leaf discs were placed on agar in a 24-well microtiter plate and sprayed with test solutions. After drying, the leaf discs were infested with an aphid population of mixed ages. After an incubation period of 6 days, samples were checked for mortality and special effects (e.g. phytotoxicity)."}, "[2]": {"system": "Myzus persicae (Green Peach Aphid)", "assay": "Activity against Myzus persicae (mixed population, systemic/feeding activity, curative), pea seedlings", "details": "144 h, pea seedling roots in test solution, 6 days after introduction", "source_text": "Example B2: Activity Against Myzus persicae (Green Peach Aphid) (Mixed Population, Systemic/Feeding Activity, Curative)\nPea seedlings, infested with an aphid population of mixed ages, were placed with the roots directly in the test solutions. 6 days after introduction, samples were checked for mortality and special effects on the plant."}, "Bemisia tabaci": {"system": "Bemisia tabaci", "assay": "Activity against Bemisia tabaci (adults on cotton, contact, preventative)", "details": "foliar, 168 h, sprayed cotton leaf discs, adult white flies, 7 DAT", "experimental": "Example B3: Activity Against Bemisia tabaci, (Adults on Cotton, Contact, Preventative)\nCotton leaf discs are placed on agar in a 24-well microtiter plate and sprayed with test solutions. After drying, the leaf discs are infested with adult white flies. After an incubation period of 7 DAT, samples are checked for mortality and special effects (e.g. phytotoxicity)."}, "[3]": {"system": "Frankliniella occidentalis (Western Flower Thrips)", "assay": "Activity against Frankliniella occidentalis (mixed population, contact/feeding), bean plants", "details": "200 ppm; sprayed bean plants; 14 days after infestation", "experimental": "Example B4: Activity Against Frankliniella occidentalis (Western Flower Thrips) (Mixed Population, Contact/Feeding)\nBean plants were treated with diluted test solutions in a spray chamber. After drying, plants were infested with a thrips population of mixed ages. 14 days after the infestation, samples were checked for damage reduction compare to the non treated samples."}, "[4]": {"details": "200 ppm, sprayed sunflower leaf discs, 6 days incubation"}},
  "note": "Where two headings read alike, the source gives them in different places.",
  "data": [
    {"smiles": "CCO/N=C(\\C#N)c1cnc(-n2ncc(C(=O)N(C)c3cccnc3)c2C)c(C)c1", "note": "[Compound 1.008, (3E/Z)-N-ethoxy-5-methyl-6-[5-methyl-4-[methyl(3-pyridyl)carbamoyl]pyrazol-1-yl]pyridine-3-carboximidoyl cyanide]", "values": [
      {"measurement": "mortality at 200 ppm", "setting": "[1]", "result": "≥ 80", "unit": "%"}
    ]},
    {"smiles": "Cc1cc(/C(C#N)=N/O)cnc1-n1ncc(C(=O)N(C)c2cccnc2)c1C", "note": "[Compound 1.007, 1-[5-[(Z)-C-cyano-N-hydroxy-carbonimidoyl]-3-methyl-2-pyridyl]-N,5-dimethyl-N-(3-pyridyl)pyrazole-4-carboxamide]", "values": [
      {"measurement": "mortality at 200 ppm", "setting": "[1]; [4]", "result": "≥ 80", "unit": "%"},
      {"measurement": "mortality at 24 ppm", "setting": "[2]", "result": "> 80", "unit": "%"}
    ]},
    {"smiles": "Cc1cc(CC#N)cnc1-n1ncc(C(=O)N(C)c2cccnc2)c1C", "note": "[Compound 1.001, 1-[5-(cyanomethyl)-3-methyl-2-pyridyl]-N,5-dimethyl-N-(3-pyridyl)pyrazole-4-carboxamide]", "values": [
      {"measurement": "mortality at 200 ppm", "setting": "[1]; [4]", "result": "≥ 80", "unit": "%"},
      {"measurement": "mortality at 24 ppm", "setting": "[2]", "result": "> 80", "unit": "%"},
      {"measurement": "mortality at 200 ppm", "setting": "Bemisia tabaci", "result": "> 80", "unit": "%"}
    ]},
    {"smiles": "Cc1cc(C2(C#N)CC2)cnc1-n1ncc(C(=O)N(C)c2cccnc2)c1C", "note": "[Compound 1.002, 1-[5-(1-cyanocyclopropyl)-3-methyl-2-pyridyl]-N,5-dimethyl-N-(3-pyridyl)pyrazole-4-carboxamide]", "values": [
      {"measurement": "mortality at 200 ppm", "setting": "[1]; [4]", "result": "≥ 80", "unit": "%"},
      {"measurement": "mortality at 24 ppm", "setting": "[2]", "result": "> 80", "unit": "%"}
    ]},
    {"smiles": "Cc1cc(C(C)C#N)cnc1-n1ncc(C(=O)N(C)c2cccnc2)c1C", "note": "(stereo not shown) [Compound 1.003, 1-[5-(1-cyanoethyl)-3-methyl-2-pyridyl]-N,5-dimethyl-N-(3-pyridyl)pyrazole-4-carboxamide]", "values": [
      {"measurement": "mortality at 200 ppm", "setting": "[1]; [4]", "result": "≥ 80", "unit": "%"},
      {"measurement": "activity (damage reduction compared to non treated samples)", "setting": "[3]", "result": "over 80%"}
    ]},
    {"smiles": "Cc1cc(C(C)(C)C#N)cnc1-n1ncc(C(=O)N(C)c2cccnc2)c1C", "note": "[Compound 1.004, 1-[5-(1-cyano-1-methyl-ethyl)-3-methyl-2-pyridyl]-N,5-dimethyl-N-(3-pyridyl)pyrazole-4-carboxamide]", "values": [
      {"measurement": "mortality at 200 ppm", "setting": "[1]; [4]", "result": "≥ 80", "unit": "%"},
      {"measurement": "mortality at 24 ppm", "setting": "[2]", "result": "> 80", "unit": "%"}
    ]},
    {"smiles": "CCOC(=O)C(CC)c1cnc(-n2ncc(C(=O)N(C)c3cccnc3)c2C)c(C)c1", "note": "(stereo not shown) [Compound 1.009]", "values": [
      {"measurement": "mortality at 200 ppm", "setting": "[1]; [4]", "result": "≥ 80", "unit": "%"}
    ]}
  ]
}
